In the METLIN SMRT retention time set (Domingo-Almenara et al. 2019):

Assay: gradient 5% acetonitrile 3 min, to 50% in 2 min, to 85% in 15 min, held 3 min, 100 µL/min
Settings: column: Zorbax Extend-C18 2.1 x 50 mm; eluents: water / acetonitrile, 0.1% formic acid
How it was run: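 Mixtures of ~100 pure standards were chromatographed on a Zorbax Extend-C18 column (2.1 × 50 mm, 1.8 μm) at 100 μL/min using water and acetonitrile, each with 0.1% formic acid. Detection used a quadrupole time-of-flight mass spectrometer in positive and negative ionization mode, and data collection spanned 3 months. Retention time was obtained from adduct peaks picked computationally and each checked manually.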

SMILES	RP-LC retention time [s]
O=S(=O)(c1ccc(Cl)s1)N1CCN(c2ccc(-n3ccnc3)nn2)CC1	593
c1ccc(-c2nc(CSc3ccc(-n4ccnc4)nn3)cs2)cc1	636
CC1CCCN(c2nn(CC(=O)Nc3ccc(F)cc3)c(=O)c3ccccc23)C1 (stereo unspecified)	1090
O=C(c1ccc(C(F)(F)F)cc1)N1CCc2nc(-c3ccc(F)cc3)ncc2C1	1080
O=C(NCc1cccs1)c1nc2ccccn2c1-c1ccccc1	853
CCCNc1cc(N2CCC(CCC(=O)Nc3ccc(OC)cc3OC)CC2)ncn1	648
CCOc1ccc(NC(=O)c2cccn2-c2cccnc2)cc1	733
O=C1CCC2(C(=O)NCCN3CCOCC3)CCCC=C2N1c1ccccc1 (stereo unspecified)	553
CCN1c2cc(F)ccc2C(=O)NC12CCN(C(=O)c1ccc(F)cc1)CC2	714
Cc1ccc(S(=O)(=O)Cc2ccc(-c3nc(-c4ccc5oc(C)nc5c4)no3)cc2)cc1	1070
CCCNc1cc(N2CCCC(CCC(=O)NCC3CCCO3)C2)ncn1 (stereo unspecified)	608
CCN1C(=O)c2cccnc2Sc2cc(C(=O)NCC(C)C)ccc21	748
CCCS(=O)(=O)N1CCO[C@@H](COC)[C@@H]1c1ccccc1	850
CCCN1C(=O)COc2ccc(-c3noc(C4CC(=O)N(c5ccc(C)cc5)C4)n3)cc21 (stereo unspecified)	941
Brc1ccc(OCc2nnc3sc(-c4ccccc4)nn23)cc1	1050
CC1(C)[C@@H]2CC[C@@]1(C(=O)O)C(=O)C2	717
CCc1ccccc1N1C(=O)CN(S(=O)(=O)CC)CC1(C)C(=O)NC1CCCCCC1 (stereo unspecified)	957
CCN(CC)S(=O)(=O)c1ccc2c(c1)N(CC(=O)NCc1ccc(C)cc1)C(=O)C1CCCCN21 (stereo unspecified)	1030
CCCNC(=O)C1CCCN(c2nc3ncn(CC(=O)NCc4cccs4)c(=O)c3s2)C1 (stereo unspecified)	657
COc1ccc(NC(=O)Cn2nc3n(c2=O)CCCC3)cc1OC	595
Cc1cccc(-c2noc(Cn3c(=O)n(-c4ccccc4C)c(=O)c4sccc43)n2)c1	1070
Cc1cccc(-n2ccnc(SCC(=O)Nc3cc(Cl)ccc3C)c2=O)c1	915
Cc1cc(Br)ccc1-c1ccc(CNCCO)o1	662

SMILES	RP-LC retention time [s]
CCn1cc(-c2nc(C)c(C(=O)Nc3ccccc3)s2)c2cccnc21	965
COCCCNCc1ccc(-c2ccc(C(C)O)cc2)o1 (stereo unspecified)	600
Cc1nnc2c(=O)n(CC(=O)NCc3cccc(Cl)c3)c3cccnc3n12	700
CCOC(=O)c1sc(NC(=O)CC(C)C)nc1-c1ccccc1	1050
CN(C)C(=O)c1cn(-c2ccc(-c3nc(C(C)(C)C)no3)cn2)cn1	808
Cc1cccc(C)c1Nc1c(-c2ccc(N(C)C)cc2)nc2ncccn12	747
c1ccc2c(CCNc3ncnc4nc[nH]c34)c[nH]c2c1	577
COc1cc(NC(=O)c2c(O)c3cccnc3n(-c3ccccc3)c2=O)cc(OC)c1	1250
COc1cccc(CCC(=O)N2C[C@@H]3C[C@H](NC(=O)c4ccccc4)[C@H]2C3)c1	793
O=C(C1CCCC1)N1CCCC(c2nn[nH]n2)C1 (stereo unspecified)	636
CCc1ccc(NC(=O)Nc2ccc3nnc(C)n3c2)cc1	712
O=C(NCC1CCS(=O)(=O)C1)c1nc2ccccc2s1 (stereo unspecified)	659
Cn1nccc1C(=O)N1CCCC1c1ccccc1Cl (stereo unspecified)	823
CC1CCCCN1S(=O)(=O)c1ccc2c(c1)CCC(=O)N2CC(=O)NCc1ccccc1 (stereo unspecified)	876
O=c1c2cc(-c3cccs3)nn2cnn1Cc1nc(-c2ccc3c(c2)OCO3)no1	1020
O=C(Nc1cccc(Cl)c1)C1CCc2nc(N3CCOCC3)ncc2C1 (stereo unspecified)	838
COc1ccc(NC(=O)NC2CCN(c3cc(N4CCCC4)cnn3)C2)cc1Cl (stereo unspecified)	584
CCOC(=O)c1noc2ncnc(N3CCN(Cc4ccccc4)CC3)c12	643
CSc1ccccc1NC(=O)c1ccc(COc2ccc(C)cc2)o1	1120
C=CCn1c(=O)c2ccccc2n(Cc2nc(-c3cccc(Cl)c3)no2)c1=O	1110
COCCn1ccc2nc(C)c(C(=O)NCCc3ccco3)cc2c1=O	638
CCN1C(=O)c2cccc3c(S(=O)(=O)Nc4cccc(C)n4)ccc1c23	635
Cc1cc(NC(=O)C2CCN(C(=O)c3cnn(-c4ccccc4)c3C)CC2)no1	657

SMILES	RP-LC retention time [s]
CCc1ccc(NC(=O)C2CCCN2S(=O)(=O)c2ccc3c(c2)NC(=O)CO3)cc1 (stereo unspecified)	859
CC(C)CCNC(=O)C1(C)Cn2nc(C(=O)N3CCN(C4CCCCC4)CC3)cc2C(=O)N1C (stereo unspecified)	620
O=C(NCc1csc(C2CCN(C(=O)c3ccc(Cl)cc3)CC2)n1)C1CCC1	761
CCCCNC(=O)Cn1nc2c3cc(-c4ccc(F)cc4)nn3ccn2c1=O	812
O=C(Nc1ccc(-c2nc(-c3ccc(Cl)cc3)no2)cc1)c1cccs1	1240
CC(=O)N1CCC2(CC1)Oc1ccccc1C1CC(c3ccc4c(c3)OCO4)=NN12 (stereo unspecified)	783
Cc1cccc(N2CCN(C(=O)c3ccc4c(c3)N(C)C(=O)C3CCCCN43)CC2)c1C (stereo unspecified)	1170
CCOc1ccc(NC(=O)Cn2cccc(-c3nc(-c4ccc(Br)cc4)no3)c2=O)cc1	1020
CC(C)NC(=O)C1CC(=O)N(C2CCCCC2)C1 (stereo unspecified)	657
Cn1c(=O)c2nc(S(=O)(=O)CCC(=O)Nc3ccc(F)cc3F)n(C)c2n(C)c1=O	737
Cc1ccccc1Oc1ccc(S(=O)(=O)NCCC(=O)O)cc1	759
Cc1nc(C2CC23CCN(S(=O)(=O)c2cccc(F)c2)CC3)no1 (stereo unspecified)	888
O=C(Cn1nc2c(SC3CCCCC3)nccn2c1=O)N1CCN(c2ccc(F)cc2)CC1	1080
O=C(CN1CCN(C(=O)Nc2ccc(Br)cc2)CC1=O)NCc1ccccn1	615
COc1ccc(-c2noc(C3CCCN3C(=O)c3ccccc3OC)n2)cc1OC (stereo unspecified)	834
CC(C)C(NC(=O)c1ccco1)C(=O)NCc1nn(C)c2ccccc12 (stereo unspecified)	677
CC1=C(C(=O)Nc2ccc(Cl)cc2C(=O)NC(C)c2ccccc2)SCCO1 (stereo unspecified)	1190
COc1cccc(CN2CCC(N3CC4(CCCCC4)C3c3ccccc3)CC2)c1OC (stereo unspecified)	624
CCCCNC(=O)c1nc(Nc2cccc(C)c2)c2ccccc2n1	858
CC(=O)c1ccc(NC(=O)CNS(=O)(=O)c2ccc(C(C)(C)C)cc2)cc1	663
CN1C(=O)C(C)(C(=O)Nc2ccccc2Cl)Oc2cccnc21 (stereo unspecified)	854
CCCN(CC1CCOC1)C(=O)Nc1c(F)cccc1F (stereo unspecified)	731
CC1CCN(C(=O)C2=CN(c3cccc(F)c3)c3ccccc3S2(=O)=O)CC1	908

SMILES	RP-LC retention time [s]
CC(C)n1nc2c(S(=O)(=O)N3CCOCC3)cccn2c1=O	670
CCOc1nc2ccccc2nc1N1CCCC(C(=O)NCc2ccccc2)C1 (stereo unspecified)	1090
Cc1ccccc1CNC(=O)c1ncn2c1C(=O)N(C1CC1)C(C)(C(=O)NCc1ccc(F)cc1)C2 (stereo unspecified)	798
Nc1cc(-c2cccs2)nn1CCO	562
Cc1sc(NC(=O)Cc2csc(-c3ccccc3)n2)nc1-c1ccc(F)cc1	1200
CCC(C)NC(=O)N1CCN(Cc2nc3cc(C(=O)N(C)C)ccc3o2)CC1 (stereo unspecified)	587
O=C(NCc1ccc(N2CCOCC2)nc1)c1cc(F)cc(F)c1	606
Cc1ccc(CNC(=O)C2=CCN(Cc3ccccc3)CC2)o1	601
COc1cc(NC(=O)N2CC(C)Oc3ccccc32)cc(OC)c1OC (stereo unspecified)	862
COC(=O)c1cnc2nc(C)ccc2c1Nc1ccc(C)cc1C	699
O=S(=O)(NC1CCCCCC1)c1ccc(-c2nnc(C3CCC3)o2)o1	996
COC(=O)c1cccc(NC(=O)c2[nH]c3cc(C)sc3c2CN2CCOCC2)c1	673
COc1ccc(-c2cn3cccnc3n2)cc1NS(=O)(=O)c1ccc(C)cc1	690
Cc1cc(C)cc(Nc2c(-c3cccc(O)c3)nc3ncccn23)c1	719
CC(C)n1c(=O)c(NCCCc2ccccc2)nc2ccncc21	707
CC(CCNC(=O)C(C)n1c2ccccc2c2cnn(C)c(=O)c21)N1CCCC1 (stereo unspecified)	612
CCCC1OC(c2cc3c(cc2Cl)OCO3)OCC1CC (stereo unspecified)	1070
CCc1ccc(OCC(=O)N(Cc2ccc(N(C)C)cc2)C2CCS(=O)(=O)C2)cc1 (stereo unspecified)	792
COC(=O)c1[nH]c(C)c(C(=O)C(C)N(CC(C)C)C(=O)c2ccccc2Cl)c1C (stereo unspecified)	932
Cc1cccc(-n2c(=O)c3c(cc(C)n3C)n(CC(=O)Nc3cccc(Cl)c3C)c2=O)c1	960
Cc1cccc(C2CCCN2C(=O)Cn2cc(Cl)cn2)c1 (stereo unspecified)	866
Cc1ccnc(NC(=O)c2ccc(Cn3cncn3)cc2)c1	593
